From article PMC2915899 (Journal of medicinal chemistry, 2010)

Key:
NadD = NadD inhibition, enzyme species not stated at the place; type: biochemical; settings: 1_02_1 compared with 1_13 and 1_15 (Fig. 4A)
baNadD = baNadD (Bacillus anthracis, UniProt C3L5T6); type: biochemical
Chain of baNadD (C3L5T6 whole entry, looked up): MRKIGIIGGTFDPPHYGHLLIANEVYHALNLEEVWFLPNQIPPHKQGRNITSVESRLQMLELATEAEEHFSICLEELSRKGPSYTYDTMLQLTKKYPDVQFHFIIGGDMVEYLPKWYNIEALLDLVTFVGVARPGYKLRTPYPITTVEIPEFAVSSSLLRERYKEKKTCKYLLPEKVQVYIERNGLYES

## O=C(CCC(=O)Nc1ccccc1Cl)N/N=C/c1ccc(/C=N/NC(=O)CCC(=O)Nc2ccccc2Cl)cc1 [Compound 1_02_1, N-(2-Chloro-phenyl)-3-(4-{[3-(2-chloro-phenylcarbamoyl)-propionyl]-hydrazonomethyl}-benzylidene-hydrazinocarbonyl)-propionamide]
NadD
  improvement in activity over monomeric precursors 1_13 and 1_15: more than 10 fold

## {N'-(4-{Carboxymethyl-[3-(2-chloro-phenylcarbamoyl)-propionyl]-hydrazonomethyl}-benzylidene)-N-[3-(2-chloro-phenylcarbamoyl)-propionyl]-hydrazino}-acetic acid [Compound 1_02_2]
baNadD
  inhibition of baNadD: did not inhibit
